Data taken from PubChem BioAssay AID1963845 (Molecular Pharmacology Branch, DTP, NCI, 2024).
pIC50: −log10 of the molar value. Several values for one entry are separate records, joined by “and”; a condition that tells them apart may be missing. Identical values can stand only once.

System: 429239-143-T-J1-PDC complex spheroid viability
Assay: Anticancer human tumor 429239-143-T-J1-PDC patient-derived small cell lung carcinoma cell line growth inhibition [POLQ]
Conditions: for viability, T/C: stronger effect = lower value
Experimental: Multicellular complex tumor spheroid response to Polymerase (POL) inhibitors (novobiocin, ART-558, RP6685) in combination with a variety of drugs and investigational agents in selected tumor cell lines
The POL inhibitors (novobiocin, ART-558, and RP6685) were evaluated both individually and in combination with standard of care and investigational anticancer small molecules within a complex spheroid model of solid tumors. . Complex spheroids include a stromal component modeled by human endothelial cells (HUVEC) and fibroblasts modeled by human mesenchymal stem cells (MSCs). The concentration ranges selected for each drug and investigational agent were based upon clinically achievable concentrations if the clinical Cmax of the agent was known.
Compounds. The drugs and investigational agents: novobiocin (NSC847541), ART-558 (NSC835418), RP-6685 (NSC848927), peposertib (NSC802822), ceralasertib (NSC780249), elimusertib (NSC800525), camonsertib (NSC841442), AZD-1390 (NSC803789), olaparib (NSC753686), talazoparib (NSC767125), rucaparib (NSC756644), sotorasib (NSC818433), MRTX-1133 (NSC836407), SN-38 (NSC673596), topotecan (NSC609699), epotoside (NSC141540), doxorubicin (NSC123127), gemcitabine (NSC613327), 5-fluorouracil (NSC19893), paclitaxel (NSC125973), vemurafenib (NSC761431), MSA-2 (NSC828583), SN-011 (NSC837082), adavosertib (NSC754352), prexasertib (NSC758257), carboplatin (NSC241240) and oxaliplatin (NSC266046), were obtained from the National Cancer Institute (NCI) Developmental Therapeutics Program Chemical Repository (21). The FDA-approved anticancer drug set is available from the Developmental Therapeutics Program at https://dtp.cancer.gov/organization/dscb/obtaining/. […] The stock solutions were prepared in dimethyl sulfoxide (DMSO, Sigma-Aldrich, St. Louis, MO, cat. D2650), except for the platinum compounds which were prepared in saline (Quality Biological, Gaithersburg, MD, cat. 114-055-101), at 800-fold the tested concentration and stored at -70 degrees C prior to their use. All drugs and investigational agents were tested over a range starting from a high concentration at or near the clinical Cmax and decreasing in half-log increments. If the clinical Cmax for an agent had not been determined, the highest concentration tested was 10 microM, except for SN-38, which was tested at a high concentration of 1 microM.
Cell Culture. All cells were maintained in an incubator at 37 degrees C and 5% CO2 with 95% humidity. The PDC lines were cultured according to standard operating procedures established by the NCI PDMR (https://pdmr.cancer.gov). Table 3 of the manuscript, lists the cell lines along with the number of the three cell types plated to form the mct-spheroids and media for tumor cell growth. After thawing, all PDC lines, except 997537-175-T-J1-PDC and 415267-285-R-J2-PDC, were cultured in Matrigel-coated flasks prepared with a working solution of 1X Ham's F-12 nutrient mix, without supplementation (Thermo Fisher Scientific, cat. 11765054), 100 U/mL penicillin-streptomycin (Thermo Fisher Scientific, cat. 15140122), and 2.5% Matrigel (Corning Inc., Corning, NY, cat. 354248) for the first three passages. The two PDC lines 997537-175-T-J1-PDC and 415267-285-R-J2-PDC were cultured on uncoated flasks. The 857933-349-R-J2-PDC line was cultured in 6C/Colon 1B media containing advanced DMEM/F-12 (Thermo Fisher Scientific, cat. 12634028), 10 mM HEPES (Thermo Fisher Scientific, cat. 15630080), 1X GlutaMAX supplement (Thermo Fisher Scientific, cat. 35050061), 0.1 mg/mL primocin (InvivoGen, San Diego, CA, cat. ant-pm-2), 10% defined fetal bovine serum, heat inactivated (HyClone Laboratories Inc., Logan, UT, cat. SH30070.03HI), 50% L-WRN conditioned media (ATCC, cat. CRL-3276), 1.25 mM N-Acetyl-L-cysteine (Sigma-Aldrich, cat. A9165), 10 mM nicotinamide (Sigma-Aldrich, cat. N0636), 1X B-27 supplement (Thermo Fisher Scientific, cat. 17504044), 1X N-2 supplement (Thermo Fisher Scientific, cat. […]
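Note: luminescence signal used as surrogate measure of viable cells; spheroids exposed to compounds for seven days before readout.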
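Throughout, for viability, T/C: 100% = DMSO vehicle control viability as luminescence relative to vehicle.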

For `CCc1c2c(nc3ccc(O)cc13)-c1cc3c(c(=O)n1C2)COC(=O)[C@]3(O)CC`, which viability, T/C (compound 0.00316 µM) is on record?
Its viability, T/C is 14.7% and 8.09% and 15.9%.

What about the viability, T/C (compound 0.01 µM) of the same compound?
The viability, T/C was 15.4% and 8.23% and 16.2%.

And the viability, T/C (compound 0.0316 µM)?
The viability, T/C was 15.1% and 8.92% and 18.4%.

What about the viability, T/C (compound 0.1 µM) of the same compound?
The viability, T/C was 18% and 6.71% and 16.7%.

What about the viability, T/C (compound 0.316 µM) of the same compound?
Its viability, T/C is 14.7% and 5.07% and 16%.

What about the viability, T/C (compound 1 µM) of the same compound?
Its viability, T/C is 4.2% and 2.5% and 5.57%.

What about the pIC50 (curve of compound) of the same compound?
The pIC50 was > 8.50.

`C#Cc1c(F)ccc2cc(O)cc(-c3ncc4c(N5CC6CCC(C5)N6)nc(OCC56CCCN5CC(F)C6)nc4c3F)c12` (configuration not stated) + Nc1ccc(C#CCN(C(=O)Cc2ncc(C(F)(F)F)cc2C(F)(F)F)c2ccc(F)cc2)nn1 was tested. Which pIC50 (curve of first compound, second compound 0.0316 µM) did it give?
Its pIC50 is < 5.00.

And the pIC50 (curve of first compound, second compound 0.1 µM)?
The pIC50 was < 5.00.

What about the pIC50 (curve of first compound, second compound 0.316 µM) of the same compound?
The pIC50 was < 5.00.

What about the pIC50 (curve of first compound, second compound 1 µM) of the same compound?
The pIC50 was < 5.00.

And the pIC50 (curve of first compound, second compound 3.16 µM)?
Its pIC50 is < 5.00.

What about the pIC50 (curve of first compound, second compound 10 µM) of the same compound?
Its pIC50 is < 5.00.

What about the viability, T/C (second compound 0.0316 µM, first compound 0.0316 µM) of the same compound?
Its viability, T/C is 98.6%.

And the viability, T/C (second compound 0.0316 µM, first compound 0.1 µM)?
The viability, T/C was 106%.

And the viability, T/C (second compound 0.0316 µM, first compound 0.316 µM)?
The viability, T/C was 103%.

And the viability, T/C (second compound 0.0316 µM, first compound 1 µM)?
The viability, T/C was 109%.

What about the viability, T/C (second compound 0.0316 µM, first compound 3.16 µM) of the same compound?
Its viability, T/C is 102%.

And the viability, T/C (second compound 0.0316 µM, first compound 10 µM)?
Its viability, T/C is 89.3%.

What about the viability, T/C (second compound 0.1 µM, first compound 0.0316 µM) of the same compound?
Its viability, T/C is 103%.

And the viability, T/C (second compound 0.1 µM, first compound 0.1 µM)?
The viability, T/C was 107%.

What about the viability, T/C (second compound 0.1 µM, first compound 0.316 µM) of the same compound?
The viability, T/C was 102%.

What about the viability, T/C (second compound 0.1 µM, first compound 1 µM) of the same compound?
Its viability, T/C is 98.7%.

And the viability, T/C (second compound 0.1 µM, first compound 3.16 µM)?
The viability, T/C was 101%.

What about the viability, T/C (second compound 0.1 µM, first compound 10 µM) of the same compound?
Its viability, T/C is 95%.

And the viability, T/C (second compound 0.316 µM, first compound 0.0316 µM)?
Its viability, T/C is 106%.

What about the viability, T/C (second compound 0.316 µM, first compound 0.1 µM) of the same compound?
Its viability, T/C is 93%.

And the viability, T/C (second compound 0.316 µM, first compound 0.316 µM)?
The viability, T/C was 102%.

And the viability, T/C (second compound 0.316 µM, first compound 1 µM)?
Its viability, T/C is 100%.

What about the viability, T/C (second compound 0.316 µM, first compound 3.16 µM) of the same compound?
The viability, T/C was 99.9%.

What about the viability, T/C (second compound 0.316 µM, first compound 10 µM) of the same compound?
The viability, T/C was 96.9%.

And the viability, T/C (second compound 1 µM, first compound 0.0316 µM)?
The viability, T/C was 102%.

What about the viability, T/C (second compound 1 µM, first compound 0.1 µM) of the same compound?
The viability, T/C was 99.8%.

And the viability, T/C (second compound 1 µM, first compound 0.316 µM)?
The viability, T/C was 105%.

What about the viability, T/C (second compound 1 µM, first compound 1 µM) of the same compound?
Its viability, T/C is 105%.

And the viability, T/C (second compound 1 µM, first compound 3.16 µM)?
The viability, T/C was 99.7%.

And the viability, T/C (second compound 1 µM, first compound 10 µM)?
The viability, T/C was 93.1%.

What about the viability, T/C (second compound 3.16 µM, first compound 0.0316 µM) of the same compound?
The viability, T/C was 99.4%.

What about the viability, T/C (second compound 3.16 µM, first compound 0.1 µM) of the same compound?
The viability, T/C was 98%.

What about the viability, T/C (second compound 3.16 µM, first compound 0.316 µM) of the same compound?
Its viability, T/C is 106%.

What about the viability, T/C (second compound 3.16 µM, first compound 1 µM) of the same compound?
Its viability, T/C is 93.8%.

What about the viability, T/C (second compound 3.16 µM, first compound 3.16 µM) of the same compound?
Its viability, T/C is 103%.

What about the viability, T/C (second compound 3.16 µM, first compound 10 µM) of the same compound?
The viability, T/C was 96.8%.

What about the viability, T/C (second compound 10 µM, first compound 0.0316 µM) of the same compound?
Its viability, T/C is 93.9%.

And the viability, T/C (second compound 10 µM, first compound 0.1 µM)?
Its viability, T/C is 106%.

And the viability, T/C (second compound 10 µM, first compound 0.316 µM)?
Its viability, T/C is 97.4%.

And the viability, T/C (second compound 10 µM, first compound 1 µM)?
The viability, T/C was 102%.

And the viability, T/C (second compound 10 µM, first compound 3.16 µM)?
Its viability, T/C is 101%.

And the viability, T/C (second compound 10 µM, first compound 10 µM)?
The viability, T/C was 90.5%.

For `CC[C@@]1(O)C(=O)OCc2c1cc1n(c2=O)Cc2cc3c(CN(C)C)c(O)ccc3nc2-1`, which viability, T/C (compound 0.000316 µM) is on record?
The viability, T/C was 98.5% and 98.7% and 92.7%.

And the viability, T/C (compound 0.001 µM)?
The viability, T/C was 96.4% and 98.7% and 99.2%.

What about the viability, T/C (compound 0.00316 µM) of the same compound?
The viability, T/C was 99.3% and 95.3% and 99.2%.

And the viability, T/C (compound 0.01 µM)?
Its viability, T/C is 64% and 86.4% and 63.1%.

And the viability, T/C (compound 0.0316 µM)?
The viability, T/C was 18% and 9.22% and 16.4%.

And the viability, T/C (compound 0.1 µM)?
Its viability, T/C is 16% and 6.06% and 17.5%.

And the pIC50 (curve of compound)?
The pIC50 was 7.85 and 7.76 and 7.86.

With `Nc1ccc(C#CCN(C(=O)Cc2ncc(C(F)(F)F)cc2C(F)(F)F)c2ccc(F)cc2)nn1` as the compound, how does the viability, T/C (compound 0.0316 µM) read?
The viability, T/C was 100% [middle of 13 runs].

And the viability, T/C (compound 0.1 µM)?
The viability, T/C was 103% [middle of 13 runs].

What about the viability, T/C (compound 0.316 µM) of the same compound?
Its viability, T/C is 99.6% [middle of 13 runs].

And the viability, T/C (compound 1 µM)?
Its viability, T/C is 101% [middle of 13 runs].

What about the viability, T/C (compound 10 µM) of the same compound?
Its viability, T/C is 107% [middle of 13 runs].

And the pIC50 (compound alone, run of 01/19/2024)?
The pIC50 was < 5.00.
